Values joined by “and” are separate entries in the source; they are usually repeats but may differ in a detail not shown here. Equal values may be shown once.
Experiments:
Format in all cases: physicochemical
[1] = Fluorescence photobleaching; conditions: continuous irradiation for 600 seconds
Procedure: The fluorescence emission data was collected at 80 points per second for 10 minutes. The excitation and emission slit widths were each set at 5 nm. At least three measurements were performed and averaged for accuracy.

[2] = Fluorescence photostability
Procedure: Fluorescence photostability: Fluorescence emission spectra were measured at different time points (1 day, 7 days and 14 days). The excitation and emission slit widths were each set at 5 nm. Three measurements were performed and averaged for accuracy.

[3] = Fluorescence characterization (excitation/emission) of self-assemblies; conditions: for fluorescent emission / Emission (λEm) / Excitation (λEx): MeOH; for fluorescent emission: excited at 370 nm; for Emission (λEm): maximal emission; for Excitation (λEx): maximal excitation
Procedure: UV-Visible fluorescence characterization: 600 μL sample solution was pipetted into a 1.0 cm path-length quartz cuvette, and the spectrum was collected using a FluoroMax-4 Spectrofluorometer (Horiba Jobin Yvon, Kyoto, Japan) at ambient temperature. For molecular fluorescence of some experiments, the emission wavelength was set at 350 nm with a slit of 3 nm, and the excitation wavelength was set at 200-330 nm with a slit of 3 nm. For self-assembly fluorescence, the excitation wavelength was set at 370 nm with a slit of 3 nm, and the emission wavelength was set at 380-700 nm with a slit of 3 nm. For excitation-dependent maximal emission evolution experiment, the excitation wavelengths were set at 300-450 nm with a slit of 3 nm, and the emission wavelengths were set at 380-600 nm with a slit of 3 nm. According to the samples, anhydrous MeOH or MeOH solution of ZnCl2 (CuCl2) was used as background and subtracted. At least five measurements were performed and averaged for accuracy. Emission and excitation wavelengths, slit dimensions and background solutions were adjusted per the measured sample and are as indicated below. […]
(§1) Fluorescence spectroscopy and quantum yield (QY) measurement: 600 μL sample solution was pipetted into a 1.0 cm path-length quartz cuvette, and the spectrum was collected using a FluoroMax-4 Spectrofluorometer (Horiba Jobin Yvon, Kyoto, Japan) at ambient temperature. The excitation and emission wavelengths were set at 300-500 nm and 400-650 nm, respectively, with a slit of 2 nm. Absolute fluorescence QY measurements were performed using Quanta-Phi integrating sphere connected to Fluoromex-4.

[4] = Quantum yield (QY) measurement; conditions: MeOH; excitation set at 350 nm if maximal excitation less than 350 nm
Procedure: Quantum yield (QY) measurement: 5 mL sample solution was pipetted into a 1.0 cm path-length quartz cuvette with a tube (Hellma, Müllheim, Germany), and the absolute quantum yield was measured on an absolute PL quantum yield spectrometer C11347 (Hamamatsu Photonics, Shizuoka, Japan) at ambient temperature. The relevant blanks, namely anhydrous MeOH, MeOH solutions of ZnCl2 (CuCl2), or DMSO solution of ZnCl2, were used as background and subtracted. At least five measurements were performed and averaged for accuracy.
as §1

[5] = Fluorescent decay measurement (lifetime); conditions: MeOH; for Lifetime (τ): at maximal excitation and emission
Procedure: Fluorescent decay measurement (lifetime): 600 μL sample solution was pipetted into a 1.0 cm path-length quartz cuvette, and the spectrum was collected using a FluoroMax-4 Spectrofluorometer (Horiba Jobin Yvon, Kyoto, Japan) equipped with a NanoLED laser excitation source at ambient temperature. The wavelength was set as the maximum excitation and emission of the samples, and a LUDOX sample (silica beads, 2 μm) was used as the prompt. The lifetime was determined by fitting the fluorescent decay data from the DAS6 Analysis software (Horiba Jobin Yvon, Kyoto, Japan). Three measurements were performed and averaged for accuracy.

[6] = Morphology and size of self-assemblies (AFM, DLS, TEM); conditions: self-assemblies in MeOH
Procedure: Dynamic light scattering (DLS): 850 μL of the sample solution was introduced into a DTS1070 folded capillary cell (Malvern, Worcestershire, U.K.), and the size was measured using a Zetasizer Nano ZS analyzer (Malvern Instruments, Malvern, UK) at 25.0° C. and a backscatter detector (173°). Three measurements were performed and averaged for accuracy.
Atomic force microscopy (AFM): 4 μL of sample solution was dropped onto a freshly cleaved mica surface and let it dry. The mica was then rinsed with water and purged dried gently with nitrogen. A topographic image was recorded under a NanoWizard 3 BioScience AFM (JPK, Berlin, Germany) in the tapping mode at ambient temperature, with 512×512 pixel resolution and a scanning speed of 1.0 Hz.
Transmission electron microscopy (TEM): A carbon-coated copper grid was placed on a 10 μL cyclo-dipeptide droplet for 1 minute and then blotted. Next, the washed grid was placed on a 10 μL droplet containing 4% (w/v) uranyl acetate solution for 1 min and then blotted. Samples were examined using Tecnai G2 Spirit TEM (FEI) at 80 kV.
Atomic force microscopy (AFM): 5 μL of sample solution was dropped onto a freshly cleaved mica surface and dried by N2 purge (99.99%). The mica was then rinsed with water and gently purge dried with nitrogen. A topographic image was recorded under a Dimension icon AFM (Bruker) in the tapping mode at ambient temperature, with a 512×512-pixel resolution and a scanning speed of 1.0 Hz. Nanoscope Analysis software was used for data collection and analysis.
For cyclo-dipeptide-Zn structures, aliquots (10 μL) of cyclo-dipeptide-Zn were added into a glow discharge copper grid (400 mesh) coated with a thin carbon film for 2 minutes. Excess solution was then removed, and the grid was washed three times with deionized water. TEM images were viewed using a FEI Tecnai F20 electron microscope operating at 80 kV.

[7] = emission band 425, excitation 340 nm
[8] = emission band 520, excitation 420 nm
[9] = emission band 380 (strong), excitation 320 nm
[10] = emission band 465 (weak), excitation 370 nm

Row | Structures [6] | Compound | Emission (λEm) [3] | Excitation (λEx) [3] | Lifetime (τ) [5] | other results
1 | nanofibers | cyclo-dihistidine [cyclo-HH] | – | – | – | fluorescent emission [3]: 430 nm; Emission (λEm) [3, 7]: 425 nm; Emission (λEm) [3, 8]: 520 nm; Excitation (λEx) [3, 7]: 340 nm; Excitation (λEx) [3, 8]: 420 nm; QY [4]: 3%; Lifetime (τ) [5, 7]: 4.89 ± 0.02 ns; Lifetime (τ) [5, 8]: 6.48 ± 0.04 ns
2 | platelets | cyclo-dityrosine [cyclo-YY] | no detectable emissions | – | – | emission ([3]; DMSO, Ex 450 nm (cyclo-FF), Ex 480 nm (cyclo-YY)): 570 nm
3 | nanofibers | tryptophan-histidine cyclic dipeptide [cyclo-WH] | – | – | – | Emission (λEm) [3, 9]: 380 (strong) nm; Emission (λEm) [3, 10]: 465 (weak) nm; Excitation (λEx) [3, 9]: 320 nm; Excitation (λEx) [3, 10]: 370 nm

The next lines start with the compound.

Row | Compound | Structures [6] | Emission (λEm) [3] | Excitation (λEx) [3] | Lifetime (τ) [5] | other results
4 | CC1(C)C(/C=C/C=C/C=C/C=C2\N(CCCCS(=O)(=O)O)c3ccc4ccccc4c3C2(C)C)=[N+](CCCCS(=O)(=O)[O-])c2ccc3ccccc3c21 [ICG, indocyanine green] | – | – | – | – | photoluminescence after continuous irradiation (photobleaching) [1]: significant fluorescence decay; fluorescence after exposure to natural light (photostability) ([2]; after 1 day): lost all fluorescence
5 | cyanine 5.5 [Cy5.5] | – | – | – | – | photoluminescence after continuous irradiation (photobleaching) [1]: significant fluorescence decay; fluorescence lost (photostability) ([2]; after 1 week): 20%
6 | histidine-tyrosine cyclic dipeptide [cyclo-HY] | nanofibers | 390 nm | 310 nm | 0.003 ± 0.034 ns | –
7 | phenylalanine-histidine cyclic dipeptide [cyclo-HF] | nanofibers | 410 nm | 340 nm | 3.29 ± 0.03 ns | –
8 | phenylalanine-tyrosine cyclic dipeptide [cyclo-FY] | nanofibers | 430 nm | 350 nm | 0.022 ± 0.003 ns | QY [4]: 3%
9 | tryptophan-tryptophan cyclic dipeptide [cyclo-WW] | nanospheres | – | 370 nm | 5.45 ± 0.03 ns | fluorescent emission [3]: 425 nm and 520 nm; Emission (λEm) ([3]; emission band 440 (strong), excitation 370 nm): 440 (strong) nm; fluorescence lifetime ([5]; excitation 370 nm): 5.6 ns
10 | tyrosine-tryptophan cyclic dipeptide [cyclo-WY] | nanofibers | 400 nm | 320 nm | 0.232 ± 0.004 ns | –

From patent US20210395312A1, “QUANTUM CONFINED PEPTIDE ASSEMBLIES AND USES THEREOF” (Ramot at Tel-Aviv University Ltd., priority 2019, published 2021)
